Legend:
[1] = test system: Mycobacterium tuberculosis Erdman (autoluminescent); experiment: FIC90 (Loewe) at 90% inhibition (log2); higher = more antagonistic
Procedure: (§1)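 DiaMOND equipotent two-drug combination dose responses against autoluminescent M. tuberculosis Erdman in 8 in vitro models. Read-out is OD600, or luminescence for the intracellular and dormancy models, normalised to untreated wells. Hill-fit Einf, AUC25 and GRinf are potency metrics; FIC50 and FIC90 are Loewe-additivity fractional inhibitory concentrations, given as log2 (negative = synergy). Replicates are averaged.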

[2] = test system: Mycobacterium tuberculosis Erdman (autoluminescent); experiment: FIC50 (Loewe) at 50% inhibition (log2); higher = more antagonistic
Procedure: as §1

[3] = test system: Mycobacterium tuberculosis Erdman (autoluminescent); experiment: Einf, fitted maximum growth inhibition of combination (fraction); higher = stronger maximal inhibition
Procedure: as §1

[4] = test system: Mycobacterium tuberculosis Erdman (autoluminescent); experiment: AUC25, normalised area under dose response up to IC25 (fraction (0-1)); higher = more potent at low dose
Procedure: as §1

[5] = test system: Mycobacterium tuberculosis Erdman (autoluminescent); experiment: GRinf, maximum normalised growth rate inhibition (unitless (-1 to 1)); higher = less effect (negative = killing)
Procedure: as §1

[6] = test system: Mycobacterium tuberculosis Erdman (autoluminescent); experiment: total FIC50 (Loewe) at 50% inhibition, three-drug combination (log2); higher = more antagonistic
Procedure: (§2)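 DiaMOND equipotent three-drug combination dose responses (10 doses, 1.5- or 2-fold spacing, centred on IC90) against autoluminescent M. tuberculosis Erdman in 8 in vitro models. Read-out is OD600, or luminescence for the intracellular and dormancy models, normalised to untreated wells. Hill-fit Einf, AUC25 and GRinf are potency metrics; FIC50 and FIC90 are total Loewe fractional inhibitory concentrations as log2 (negative = synergy).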

[7] = test system: Mycobacterium tuberculosis Erdman (autoluminescent); experiment: total FIC90 (Loewe) at 90% inhibition, three-drug combination (log2); higher = more antagonistic
Procedure: as §2

[8] = test system: Mycobacterium tuberculosis Erdman (autoluminescent); experiment: Einf, fitted maximum growth inhibition of three-drug combination (fraction); higher = stronger maximal inhibition
Procedure: as §2

[9] = test system: Mycobacterium tuberculosis Erdman (autoluminescent); experiment: AUC25, normalised area under dose response up to IC25 (three-drug combination) (fraction (0-1)); higher = more potent at low dose
Procedure: as §2

[10] = test system: Mycobacterium tuberculosis Erdman (autoluminescent); experiment: GRinf, maximum normalised growth rate inhibition (three-drug combination) (unitless (-1 to 1)); higher = less effect (negative = killing)
Procedure: as §2

COc1nc2ccc(Br)cc2cc1[C@@H](c1ccccc1)[C@@](O)(CCN(C)C)c1cccc2ccccc12 [bedaquiline] + COc1c(N2C[C@@H]3CCCN[C@@H]3C2)c(F)cc2c(=O)c(C(=O)O)cn(C3CC3)c12 [moxifloxacin]
Conditions | AUC25, [4] | Einf, [3] | FIC50, [2] | FIC90, [1] | GRinf, [5]
in vitro model: acidic pH 5.7, time point: constant (~7 days, model-specific) | 0.111 | 0.834 | 0.282 | – | -0.5
in vitro model: acidic pH 5.7, time point: terminal (~4-5 doublings, model-specific) | 0.0707 | 0.974 | 0.69 | 0.144 | -0.382
in vitro model: intracellular J774, time point: constant = terminal | – | 0.975 | – | 0.878 | -0.309

Conditions | AUC25, [4] | Einf, [3] | FIC50, [2] | FIC90, [1] | GRinf, [5]
in vitro model: butyrate, time point: constant (~7 days, model-specific) | 0.092 | 0.966 | 0.816 | 0.849 | -0.175
in vitro model: butyrate, time point: terminal (~4-5 doublings, model-specific) | 0.059 | 0.981 | 0.823 | 0.833 | -0.131
in vitro model: cholesterol 0.05 mM, time point: constant (~7 days, model-specific) | 0.112 | 0.777 | 0.158 | – | -0.237
in vitro model: cholesterol 0.05 mM, time point: terminal (~4-5 doublings, model-specific) | 0.0888 | 0.951 | 0.528 | 0.279 | -0.314
in vitro model: cholesterol-high 0.2 mM, time point: constant (~7 days, model-specific) | 0.0699 | 0.968 | 0.333 | 0.255 | -0.699
in vitro model: cholesterol-high 0.2 mM, time point: terminal (~4-5 doublings, model-specific) | 0.0477 | 1 | 0.532 | 0.271 | -0.644
in vitro model: dormancy (butyrate + nitrate, low O2), time point: constant (~7 days, model-specific) | 0.0664 | 0.921 | 0.814 | 0.437 | 0.176
in vitro model: dormancy (butyrate + nitrate, low O2), time point: terminal (~4-5 doublings, model-specific) | 0.0916 | 0.982 | 0.702 | 1.39 | -0.143
in vitro model: standard 7H9 glycerol, time point: constant = terminal | 0.105 | 0.993 | 0.0351 | 0.704 | -0.102
in vitro model: valerate, time point: constant (~7 days, model-specific) | 0.0901 | 0.911 | 0.469 | – | -0.123
in vitro model: valerate, time point: terminal (~4-5 doublings, model-specific) | 0.0647 | 0.966 | 0.485 | 0.622 | -0.0943

COc1nc2ccc(Br)cc2cc1[C@@H](c1ccccc1)[C@@](O)(CCN(C)C)c1cccc2ccccc12 [bedaquiline] + NC(=O)c1cnccn1 [pyrazinamide]
Conditions | AUC25, [4] | Einf, [3] | FIC50, [2] | FIC90, [1] | GRinf, [5]
in vitro model: acidic pH 5.7, time point: constant (~7 days, model-specific) | 0.0806 | 0.84 | -0.282 | -1.27 | -0.398
in vitro model: acidic pH 5.7, time point: terminal (~4-5 doublings, model-specific) | 0.0795 | 0.985 | -0.0485 | -0.613 | -0.351
in vitro model: intracellular J774, time point: constant = terminal | – | 0.99 | – | 0.411 | -0.387

Conditions | AUC25, [4] | Einf, [3] | FIC50, [2] | FIC90, [1] | GRinf, [5]
in vitro model: butyrate, time point: constant (~7 days, model-specific) | 0.124 | 0.969 | 0.033 | 0.896 | -0.595
in vitro model: butyrate, time point: terminal (~4-5 doublings, model-specific) | 0.106 | 0.991 | 0.262 | 1.12 | -0.941
in vitro model: cholesterol 0.05 mM, time point: constant (~7 days, model-specific) | 0.101 | 0.746 | – | – | -0.259
in vitro model: cholesterol 0.05 mM, time point: terminal (~4-5 doublings, model-specific) | 0.0985 | 0.949 | 0.282 | – | -0.43
in vitro model: cholesterol-high 0.2 mM, time point: constant (~7 days, model-specific) | 0.0781 | 0.978 | 0.168 | – | -0.543
in vitro model: cholesterol-high 0.2 mM, time point: terminal (~4-5 doublings, model-specific) | 0.0705 | 1 | 0.224 | 0.208 | -0.654
in vitro model: dormancy (butyrate + nitrate, low O2), time point: constant (~7 days, model-specific) | 0.0588 | 0.919 | -1.06 | -1.22 | 0.131
in vitro model: dormancy (butyrate + nitrate, low O2), time point: terminal (~4-5 doublings, model-specific) | 0.0543 | 0.98 | -0.504 | -0.991 | -0.121
in vitro model: standard 7H9 glycerol, time point: constant = terminal | 0.072 | 0.943 | -0.45 | – | -0.0583
in vitro model: valerate, time point: constant (~7 days, model-specific) | 0.0845 | 0.896 | 0.247 | – | -0.0105
in vitro model: valerate, time point: terminal (~4-5 doublings, model-specific) | 0.057 | 0.943 | 0.318 | 0.391 | 0.0136

O=[N+]([O-])c1cn2c(n1)OC[C@@H](OCc1ccc(OC(F)(F)F)cc1)C2 [pretomanid] + CO[C@H]1/C=C/O[C@@]2(C)Oc3c(C)c(O)c4c(O)c(c(/C=N/N5CCN(C6CCCC6)CC5)c(O)c4c3C2=O)NC(=O)/C(C)=C\C=C\[C@H](C)[C@H](O)[C@@H](C)[C@@H](O)[C@@H](C)[C@H](OC(C)=O)[C@@H]1C [rifapentine] + CO[C@H]1/C=C/O[C@@]2(C)Oc3c(C)c(O)c4c(O)c(c(/C=N/N5CCN(C)CC5)c(O)c4c3C2=O)NC(=O)/C(C)=C\C=C\[C@H](C)[C@H](O)[C@@H](C)[C@@H](O)[C@@H](C)[C@H](OC(C)=O)[C@@H]1C [rifampicin]
Conditions | AUC25, [9] | Einf, [8] | GRinf, [10] | total FIC50, [6] | total FIC90, [7]
in vitro model: acidic pH 5.7, time point: constant (~7 days, model-specific) | 0.0846 | 0.906 | -0.198 | 0.583 | –
in vitro model: acidic pH 5.7, time point: terminal (~4-5 doublings, model-specific) | 0.0433 | 0.982 | -0.177 | 0.863 | 0.271
in vitro model: intracellular J774, time point: constant = terminal | – | 0.998 | -0.321 | – | 0.0281

Conditions | AUC25, [9] | Einf, [8] | GRinf, [10] | total FIC50, [6] | total FIC90, [7]
in vitro model: butyrate, time point: constant (~7 days, model-specific) | 0.0997 | 0.913 | 0.0188 | 0.122 | -0.618
in vitro model: butyrate, time point: terminal (~4-5 doublings, model-specific) | 0.0845 | 0.963 | -0.00218 | -0.0327 | -0.0222
in vitro model: cholesterol 0.05 mM, time point: constant (~7 days, model-specific) | 0.12 | 0.706 | -0.115 | 0.545 | –
in vitro model: cholesterol 0.05 mM, time point: terminal (~4-5 doublings, model-specific) | 0.0882 | 0.891 | -0.0855 | 0.37 | 0.821
in vitro model: cholesterol-high 0.2 mM, time point: constant (~7 days, model-specific) | 0.0723 | 0.899 | -0.242 | 0.542 | 0.699
in vitro model: cholesterol-high 0.2 mM, time point: terminal (~4-5 doublings, model-specific) | 0.0602 | 0.992 | -0.654 | 0.62 | 0.433
in vitro model: dormancy (butyrate + nitrate, low O2), time point: constant (~7 days, model-specific) | 0.0773 | 0.885 | 0.156 | 0.534 | 0.288
in vitro model: dormancy (butyrate + nitrate, low O2), time point: terminal (~4-5 doublings, model-specific) | 0.0339 | 0.968 | -0.0787 | 0.206 | 0.101
in vitro model: standard 7H9 glycerol, time point: constant = terminal | 0.0607 | 0.906 | 0.057 | 0.0183 | –
in vitro model: valerate, time point: constant (~7 days, model-specific) | 0.0681 | 0.866 | 0.0606 | 0.168 | –
in vitro model: valerate, time point: terminal (~4-5 doublings, model-specific) | 0.0473 | 0.937 | 0.0285 | 0.389 | 0.0371

From the supplement of paper PMC8617591
